Structures can show the parent of a compound that is named as a salt.
Target: T1, rat α2B (RNG gene) receptor (Rattus norvegicus, UniProt P19328)
T1 construct: expressed in transfected cells; host or cells: NIH-3T3 cells, calcium phosphate cotransfection
T1 sequence (P19328 1-453): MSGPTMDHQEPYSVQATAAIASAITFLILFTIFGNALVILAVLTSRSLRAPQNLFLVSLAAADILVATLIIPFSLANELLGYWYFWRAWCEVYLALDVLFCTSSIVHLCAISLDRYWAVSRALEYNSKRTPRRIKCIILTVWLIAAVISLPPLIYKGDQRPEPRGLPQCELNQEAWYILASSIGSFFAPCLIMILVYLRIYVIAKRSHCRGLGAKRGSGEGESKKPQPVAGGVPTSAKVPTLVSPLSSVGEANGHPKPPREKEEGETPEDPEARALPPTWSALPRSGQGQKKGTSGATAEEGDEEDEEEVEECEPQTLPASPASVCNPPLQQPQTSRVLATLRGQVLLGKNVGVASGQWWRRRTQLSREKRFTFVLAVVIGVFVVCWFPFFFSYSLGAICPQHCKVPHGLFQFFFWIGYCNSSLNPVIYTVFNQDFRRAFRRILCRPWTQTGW
Assay: RSAT (Receptor Selection and Amplification Technology) assay, alpha 2B
Format: cell-based
Details: ratio of maximal effect to that of standard full agonist oxymetazoline
Source text: This preferential activity can be determined in a variety of functional assays such as Cyclic AMP Production, Shimizu et al, J. Neurochem. […] In the study below, the RSAT assay on cells that have been transiently transfected with the human α2A (c10 gene), rat α2B (RNG gene) and human α2C (c4 gene) receptors was used.
The assay measures a receptor-mediated loss of contact inhibition that results in selective proliferation of receptor-containing cells in a mixed population of confluent cells. The increase in cell number is assessed with an appropriate transfected marker gene such as b-galactosidase, the activity of which can be easily measured in a 96-well format. Receptors that activate the G protein, Gq, elicit this response. Alpha2 receptors, which normally couple to Gi, activate the RSAT response when coexpressed with a hybrid Gq protein that has a Gi receptor recognition domain, called Gq/i5^2.
NIH-3T3 cells are plated at a density of 2×10^6 cells in 15 cm dishes and maintained in Dulbecco's modified Eagle's medium supplemented with 10% calf serum. One day later, cells are cotransfected by calcium phosphate precipitation with mammalian expression plasmids encoding p-SV-b-galactosidase (5-10 mg), receptor (1-2 mg) and G protein (1-2 mg). 40 mg salmon sperm DNA may also be included in the transfection mixture. Fresh media is added on the following day and 1-2 days later, cells are harvested and frozen in 50 assay aliquots. Cells are thawed and 100 ml added to […] aliquots of various concentrations of drugs in triplicate in 96-well dishes. Incubations continue 72-96 hr at 37°. After washing with phosphate-buffered saline, b-galactosidase enzyme activity is determined by adding 200 ml of the chromogenic substrate (consisting of 3.5 mM o-nitrophenyl-b-D-galactopyranoside and 0.5% nonidet P-40 in phosphate buffered saline), incubating overnight at 30° and measuring optical density at 420 nm. The absorbence is a measure of enzyme activity, which depends on cell number and reflects a receptor-mediated cell proliferation. The EC50 and maximal effect of each drug at each alpha2 receptor is determined. The efficacy or intrinsic activity is calculated as a ratio of the maximal effect of the drug to the maximal effect of a standard full agonist for each receptor subtype.

CC1CC(Cc2c[nH]cn2)C(=O)c2ccccc21 (stereo not drawn) [Example B-4b, 2-(1H-imidazol-4(5)-ylmethyl)-4-methyl-3,4-dihydro-2H-naphthalen-1-one]
Intrinsic Activity Relative to Oxymetazoline, Alpha 2B: 0.7

CC1(C)CC(Cc2c[nH]cn2)Cc2ccccc21 (stereo not drawn) [Example B-10, 4(5)-(4,4-dimethyl-1,2,3,4-tetrahydronaphthalen-2-ylmethyl)-1H-imidazole]
Intrinsic Activity Relative to Oxymetazoline, Alpha 2B: 0.3

CC1CC(Cc2c[nH]cn2)Cc2ccccc21 (stereo not drawn) [Example B-4a, 4(5)-(4-methyl-1,2,3,4-tetrahydronaphthalen-2-ylmethyl)-1H-imidazole]
Intrinsic Activity Relative to Oxymetazoline, Alpha 2B: 0.75

c1nc(Cc2cc3c(s2)SCCC3)c[nH]1 [Example K-3, 4(5)-(5,6-dihydro-4H-thieno[2,3-b]thiopyran-2-ylmethyl)-1H-imidazole]
Intrinsic Activity Relative to Oxymetazoline, Alpha 2B: 0.37

Cc1ccc2c(c1)CC(Cc1c[nH]cn1)CC2.Cl (stereo not drawn) [Example B-8b, 4(5)-(7-methyl-1,2,3,4-tetrahydronaphthalen-2-ylmethyl)-1H-imidazole, hydrogen chloride salt]
Intrinsic Activity Relative to Oxymetazoline, Alpha 2B: 0.6

Cl.c1nc(CC2CCC3SCCC3C2)c[nH]1 (stereo not drawn) [Example B-9c, 5-(octahydrobenzo[b]thiophen-5-ylmethyl)-1H-imidazole, hydrochloride]
Intrinsic Activity Relative to Oxymetazoline, Alpha 2B: 0.3

CC1=CC(Cc2c[nH]cn2)CC(C)(C)C1 (stereo not drawn) [Example T-2, 4(5)-(3,5,5-trimethyl-cyclohex-2-enylmethyl)-1H-imidazole, but-2-endioic acid salt]
Intrinsic Activity Relative to Oxymetazoline, Alpha 2B: 0.7

c1ccc2c(c1)CCCC(Cc1c[nH]cn1)C2 (stereo not drawn) [Example B-11a, 4(5)-(6,7,8,9-tetrahydro-5H-benzocyclohepten-6-ylmethyl)-1H-imidazole]
Intrinsic Activity Relative to Oxymetazoline, Alpha 2B: 0.9

O=C1/C(=C/c2c[nH]cn2)CCCc2ccccc21 [Example B-11b, 6-(1H-imidazol-4(5)-ylmethylene)-6,7,8,9-tetrahydrobenzocyclohepten-5-one]
Intrinsic Activity Relative to Oxymetazoline, Alpha 2B: 0.3

C1=C2CCCCC2CCC1Cc1c[nH]cn1 (stereo not drawn) [Example N-2, 4(5)-(2,3,4,4a,5,6,7,8-octahydronaphthalen-2-ylmethyl)-1H-imidazole]
Intrinsic Activity Relative to Oxymetazoline, Alpha 2B: 0.5

Cc1c(N=C2NCCN2)ccc2c1NC(=O)CO2 [F, 6-(imidazolidin-2-ylideneamino)-5-methyl-4H-benzo[1,4]oxazin-3-one]
Intrinsic Activity Relative to Oxymetazoline, Alpha 2B: 0.9

c1ccc2oc(Cc3c[nH]cn3)cc2c1 [Example C-10, 4(5)-benzofuran-2-ylmethyl-1H-imidazole]
Intrinsic Activity Relative to Oxymetazoline, Alpha 2B: 0.48

CC1=CCC(Cc2c[nH]cn2)CC1 (stereo not drawn) [Example X-1, 4(5)-(4-Methyl-cyclohex-3-enylmethyl)-1H-imidazole, but-2-enedioic acid salt]
Intrinsic Activity Relative to Oxymetazoline, Alpha 2B: 0.8

O=C1/C(=C/c2c[nH]cn2)COc2ccccc21 [Example B-2a, 3-(1H-imidazol-4(5)-ylmethylene)chroman-4-one]
Intrinsic Activity Relative to Oxymetazoline, Alpha 2B: 0.63

c1ccc(-c2csc(Cc3c[nH]cn3)c2)cc1 [Example C-13, 4(5)-(4-phenylthiophen-2-ylmethyl)-1H-imidazole]
Intrinsic Activity Relative to Oxymetazoline, Alpha 2B: 0.5

C1=NC(CC2CCc3ccccc3C2)CN1 (stereo not drawn) [I, 4(5)-(1,2,3,4-tetrahydronaphthalen-2-ylmethyl)-4,5-dihydro-1H-imidazole, methane sulfonic acid salt]
Intrinsic Activity Relative to Oxymetazoline, Alpha 2B: 0.5

c1nc(Cc2cc3c(s2)CCCC3)c[nH]1 [Example K-1, 4(5)-(4,5,6,7-tetrahydrobenzo[b]thiophen-2-ylmethyl)-1H-imidazole]
Intrinsic Activity Relative to Oxymetazoline, Alpha 2B: 0.53

C1=C(C2CC2)CCCC1Cc1c[nH]cn1 (stereo not drawn) [Example 1L]
Intrinsic Activity Relative to Oxymetazoline, Alpha 2B: 0.7

From US6841684B2, “Imidiazoles having reduced side effects” (Allergan, Inc., priority 1997, dated 2005)
